Patent publication US7087642B2 (priority 1999, dated 2006)
Like-named read-outs stand apart in the source and are kept apart here.

Assays:
[1] = system: human PBMC T cells; assay: cells; assay type: cell-based; settings: read-out: T-cells (IC50)
[2] = system: human PBMC B cells; assay: cells; assay type: cell-based; settings: read-out: B-cells (IC50)
[3] = molecular target: IMPDH human type II (Homo sapiens, UniProt P12268); assay: biochemical; settings: read-out: Ki

Row | Compound | IC50 ([1]; Homo sapiens, 72 h) [µM] | IC50 ([2]; Homo sapiens, 72 h) [µM] | Ki [3] [µM] | IC50 [1] [µM] | IC50 [2] [µM]
1 | COc1cc(NC(=O)Nc2cccc(CNC(=O)OC(CCO)CCC#N)c2)ccc1-c1cnco1 (stereo not drawn) [Compound 45] | 0.1 to 1 | 0.1 to 1 | < 0.01 | – | –
2 | COc1cc(NC(=O)Nc2cccc(CNC(=O)O[C@H](CCN(C)C)c3ccccc3)c2)ccc1-c1cnco1 [Compound 39] | – | – | < 0.01 | 0.1 to 1 | 0.1 to 1
3 | COc1cc(NC(=O)Nc2cccc(CNC(=O)O[C@H](CN(CC3CC3)C(C)C)c3ccccc3)c2)ccc1-c1cnco1 [Compound 110] | 0.1 to 1 | < 0.1 | > 0.05 | – | –
4 | COc1cc(NC(=O)Nc2cccc([C@H](C)NC(=O)O[C@H]3CCOC3)c2)ccc1C#N [Compound 185] | – | – | 0.01 to 0.05 | 0.1 to 1 | 0.1 to 1
5 | CCC(CCN1CCOCC1)OC(=O)NCc1cccc(NC(=O)Nc2ccc(-c3cnco3)c(OC)c2)c1 (stereo not drawn) [Compound 65] | 0.1 to 1 | 0.1 to 1 | < 0.01 | – | –
6 | CCCN(CCC(OC(=O)NCc1cccc(NC(=O)Nc2ccc(-c3cnco3)c(OC)c2)c1)c1ccccc1)CC1CC1 (stereo not drawn) [Compound 122] | > 1 | > 1 | > 0.05 | – | –
7 | COc1cc(NC(=O)Nc2cccc(CNC(=O)OC(CN(CC(C)C)CC(C)C)c3ccccc3)c2)ccc1-c1cnco1 (stereo not drawn) [Compound 116] | > 1 | > 1 | > 0.05 | – | –
8 | COCC(C)OC(=O)NCc1cccc(NC(=O)Nc2ccc(-c3cnco3)c(OC)c2)c1 (stereo not drawn) [Compound 41] | 0.1 to 1 | 0.1 to 1 | < 0.01 | – | –
9 | CC[C@@H](CCN(CC)CC)OC(=O)NCc1cccc(NC(=O)Nc2ccc(-c3cnco3)c(OC)c2)c1 [Compound 102] | 0.1 to 1 | 0.1 to 1 | < 0.01 | – | –
10 | COc1cc(NC(=O)Nc2cccc(CNC(=O)O[C@H](CCl)CC#N)c2)ccc1-c1cnco1 [Compound 23] | < 0.1 | < 0.1 | < 0.01 | – | –
11 | CCC(CCCCO)OC(=O)NCc1cccc(NC(=O)Nc2ccc(-c3cnco3)c(OC)c2)c1 (stereo not drawn) [Compound 49] | 0.1 to 1 | 0.1 to 1 | < 0.01 | – | –
12 | COc1cc(NC(=O)Nc2cccc(CNC(=O)OC[C@H](CC#N)N(C)C)c2)ccc1-c1cnco1 [Compound 6] | 0.1 to 1 | 0.1 to 1 | < 0.01 | – | –
13 | COc1cc(NC(=O)Nc2cccc(CNC(=O)O[C@H](CN3CCCC3)c3ccccc3)c2)ccc1-c1cnco1 [Compound 98] | 0.1 to 1 | 0.1 to 1 | 0.01 to 0.05 | – | –
14 | CC[C@@H](CC#N)OC(=O)NCc1cccc(NC(=O)Nc2ccc(-c3cnco3)c(OC)c2)c1 [Compound 82] | 0.1 to 1 | 0.1 to 1 | > 0.05 | – | –
15 | CCN(CC)CC(OC(=O)Nc1ccc(NC(=O)Nc2ccc(-c3cnco3)c(OC)c2)cc1)C(C)(C)C (stereo not drawn) [Compound 132] | 0.1 to 1 | 0.1 to 1 | > 0.05 | – | –
16 | COc1cc(NC(=O)Nc2cccc(CNC(=O)O[C@@H]3C=C[C@H](OC(C)=O)C3)c2)ccc1-c1cnco1 [Compound 78] | 0.1 to 1 | 0.1 to 1 | < 0.01 | – | –
17 | COc1cc(NC(=O)Nc2cccc(CNC(=O)OC3COCC3OCC(=O)O)c2)ccc1-c1cnco1 (stereo not drawn) [Compound 71] | > 1 | > 1 | < 0.01 | – | –
18 | CCN(CC)C[C@@H](OC(=O)NC(C)c1cccc(NC(=O)Nc2ccc(-c3cnco3)c(OC)c2)c1)c1ccccc1 (stereo partly drawn) [Compound 166] | 0.1 to 1 | 0.1 to 1 | > 0.05 | – | –
19 | CCCN(C)CCC(OC(=O)NCc1cccc(NC(=O)Nc2ccc(-c3cnco3)c(OC)c2)c1)c1ccccc1 (stereo not drawn) [Compound 118] | 0.1 to 1 | 0.1 to 1 | > 0.05 | – | –
20 | COc1cc(NC(=O)Nc2cccc(CNC(=O)OC(CC#N)C3CC3)c2)ccc1-c1cnco1 (stereo not drawn) [Compound 104] | < 0.1 | < 0.1 | 0.01 to 0.05 | – | –
21 | CC[C@H](CO)OC(=O)N[C@H](C)c1cccc(NC(=O)Nc2ccc(C#N)c(OC)c2)c1 [Compound 179] | > 1 | > 1 | > 0.05 | – | –
22 | CCN(CC(C)C)CC(OC(=O)NCc1cccc(NC(=O)Nc2ccc(-c3cnco3)c(OC)c2)c1)c1ccccc1 (stereo not drawn) [Compound 115] | > 1 | > 1 | > 0.05 | – | –
23 | COc1cc(NC(=O)Nc2cccc(CNC(=O)O[C@H](CN3CCCCC3)c3ccccc3)c2)ccc1-c1cnco1 [Compound 99] | 0.1 to 1 | 0.1 to 1 | 0.01 to 0.05 | – | –
24 | CC[C@H](CO)OC(=O)N[C@@H](C)c1cccc(NC(=O)Nc2ccc(C#N)c(OC)c2)c1 [Compound 180] | 0.1 to 1 | > 1 | 0.01 to 0.05 | – | –
25 | CCCN(CC(C)C)CC(OC(=O)NCc1cccc(NC(=O)Nc2ccc(-c3cnco3)c(OC)c2)c1)c1ccccc1 (stereo not drawn) [Compound 112] | > 1 | > 1 | > 0.05 | – | –
26 | CCC(CCO)OC(=O)NCc1cccc(NC(=O)Nc2ccc(-c3cnco3)c(OC)c2)c1 (stereo not drawn) [Compound 43] | 0.1 to 1 | 0.1 to 1 | < 0.01 | – | –
